# Reference: patent US20250332132A1, “SELENIUM-CONTAINING SUBSTANCE FOR TREATMENT OF CANCER” (SHANGHAI INSTITUTE OF NUTRITION AND HEALTH, CHINESE ACADEMY …, priority 2022, published 2025)
# How the values were obtained:
# [1] = test system: LLC cell subcutaneous xenograft tumors; assay: Subcutaneous LLC xenograft tumor model in mice (tumor growth, volume, weight); assay type: in vivo, mouse (C57BL/6J)
# Description: FIG. 1 panel A: Experimental pattern diagram. Mice were first subcutaneously injected with LLC cells (2*10^5 cells per mouse) to establish xenograft tumors. After 14 days of tumor formation, mice received SeMet treatment for two weeks, with intraperitoneal injection of SeMet at a dose of 2 mg/kg, 5 times per week; FIG. 1 panel B: Tumor growth statistical curve in mice; FIG. 1 panel C: Representative photographic results of mouse tumors.
# FIG. 5 illustrates the therapeutic effects of SeMet and PD-1 antibody on LLC cell subcutaneous xenograft tumors in mice. FIG. 5 panel A: Experimental pattern diagram. Mice were first subcutaneously injected with LLC cells (2*10^5 cells per mouse) to establish xenograft tumors. After 14 days of tumor formation, mice were treated with SeMet and PD-1 antibody alone or in combination by intraperitoneal injection for two weeks. The dosage of SeMet was 2 mg/kg, 5 times per week; the dosage of PD-1 antibody was 200 μg per mouse, 2 times per week; FIG. 5 panel B: Tumor growth statistical curve in mice; FIG. 5 panel C: Ratio of tumor to body weight in mice; FIG. 5 panel D: Representative photographic results of mouse tumors.
# All animal experiments were approved by the Animal Ethics Committee of the Institute of Nutrition Sciences, Shanghai Institutes for Biological Sciences, Chinese Academy of Sciences, and were conducted in accordance with the protocols approved by the Animal Care and Use Committee of Shanghai Institutes for Biological Sciences. Six-week-old C57BL/6J mice were purchased from Shanghai Slake Experimental Animal Co., Ltd. and were housed in an SPF-grade animal facility. […] The tumor size was measured every two days, and the tumor volume (mm^3) was calculated using the following formula: ½×a×b^2, wherein a was the long diameter and b was the short diameter of the tumor. After the mice were euthanized, the tumors were excised, weighed, and the average weight of tumors in each group was calculated. The excised tumors were fixed with paraformaldehyde for subsequent immunohistochemical or immunofluorescence analysis.
# C57BL/6J mice were subcutaneously injected with LLC cells (2*10^5 cells per mouse) to establish xenograft tumors. After 14 days of tumor formation, mice received SeMet treatment for two weeks (FIG. 1 panel A).
# Subsequently, we investigated the therapeutic effects of SeMet and PD-1 antibody used alone or in combination on LLC cell subcutaneous xenograft tumors in mice. Mice were first subcutaneously injected with LLC cells (2*10^5 cells per mouse) to establish xenograft tumors. After 14 days of tumor formation, mice were treated with SeMet and PD-1 antibody alone or in combination by intraperitoneal injection for two weeks. The dosage and frequency of SeMet were the same as previously described, while the dosage of PD-1 antibody was 200 μg per mouse, 2 times per week (FIG. 5 panel A).
# An L-selenomethionine was used to construct an N-acetyl-selenomethionine (N-Ac-SeMet) to improve its stability. To verify the therapeutic effect of the N-acetyl-selenomethionine on lung cancer, C57BL/6J mice were subcutaneously injected with LLC cells (2*10^5 cells per mouse) to establish xenograft tumors and divided into four groups: control group, selenomethionine (SeMet) treated group, N-acetyl-selenomethionine (N-Ac-SeMet) treated group, and anti-PD1 treated group. After 14 days of tumor formation, the mice in each group were treated for two weeks.
# [2] = test system: CD45+ immune cells, CD25+Foxp3+ Treg cells, IL-17a+ TH17 cells; assay: Flow cytometry of immune cells in LLC xenograft tumors; assay type: in vivo, mouse (C57BL/6J)
# Description: Preparation of single-cell suspension from mouse tumor cells: 200 mg of mouse tumor tissue was obtained, cut into pieces and added to 2.43 ml of tumor digestion solution, followed by digestion in a 37° C. shaking water bath for 30 minutes. Flow cytometry staining included surface antigen staining and intracellular factor (cytokines and transcription factors) staining. For the cytokine detection, broad-spectrum activation inhibitors (PMA, ionomycin, or BFA, added at a ratio of 1:1000) were first prepared with the RPMI-1640 medium. 100 μl of each reagent was added to resuspend the cells, and the cells were then transferred to a 96-well plate and treated in a 37° C. cell incubator for 4-6 h. Subsequently, 200 μl of FACS buffer was added, and the cells were pipetted to mix evenly before transferred to a 1.5 ml eppendorf tube. The tube was centrifuged at 350 g for 5 minutes, and the supernatant was carefully aspirated. Cells were resuspended in 100 μl of PBS. For the surface antigen staining, the above steps were omitted. The cell suspension was placed on ice, and live/dead dye (at a ratio of 1:1000) was added. Staining was performed on ice in darkness for 30 minutes. Cells were washed with 1 ml of PBS, centrifuged at 350 g for 5 minutes, and the supernatant was carefully removed. The cell precipitate was resuspended in the FACS buffer, and the blocking antibody CD16/CD32 was added at a ratio of 1:200. The mixture was placed on ice in darkness for 30 minutes. Subsequently, surface antibodies were added at a ratio of 1:200: CD45, CD3, CD4, and CD25 antibodies were sequentially added for Treg cell surface staining; CD45, CD3, and CD4 antibodies were sequentially added for Th17 cell staining. Incubation was performed on ice in darkness for 30 minutes. Cells were washed with 1 ml of the FACS buffer, then centrifuged at 350 g for 5 minutes, and the supernatant was carefully removed. For intracellular factor staining, 250 μl of the fixation/permeabilization solution was added, and the cells were incubated on ice in darkness for 2 h. Then, 1 ml of the fixation/permeabilization wash buffer was added, the cells were centrifuged at 500 g for 5 minutes, and the supernatant was carefully removed. Cells were resuspended in the fixation/permeabilization wash buffer, and intracellular antibodies Foxp3 and IL-17A were added at a ratio of 1:200. The cells were incubated on ice in darkness for 30 minutes. After washing with 1 ml of the FACS buffer and centrifugation at 500 g for 5 minutes, the supernatant was carefully removed. Cells were resuspended in 200 μl of the FACS buffer and prepared for flow cytometry analysis.
# [3] = Selenium content in subcutaneous xenograft tumors; assay type: in vivo, mouse; details: mice, after SeMet treatment
# CD4 and Foxp3 = assay: qPCR of CD4 and Foxp3 expression in LLC xenograft tumors; assay type: in vivo, mouse (C57BL/6J); details: vs control group, FIG. 7A
# Description: After the cells were cultured or treated, the medium was discarded, and the cells were washed once with ice-cold PBS. Then, 1 mL of Trizol reagent was added, and the cells were completely blown down. If it was for the tissue, 10-20 mg of tissue was homogenized into a homogenate using a grinder, with the addition of steel beads and 1 mL of Trizol. 200 μL of chloroform was added into the cell or tissue homogenate in 1 mL of Trizol, mixed vigorously, and placed on ice for 5 minutes. The mixture was centrifuged at 12,000 rpm for 10 minutes at 4° C. Then, 400 μL of the supernatant was carefully aspirated and added to an equal volume of isopropanol, vigorously mixed, and placed on ice for 15 minutes and centrifuged again at 12,000 rpm for 10 minutes at 4° C. Afterwards, a white RNA precipitate was visible at the bottom. The supernatant was carefully discarded, and 1 ml of 75% ethanol (diluted with DEPC-treated water) was added. […] A certain volume of DEPC-treated water was added to dissolve the RNA, and the concentration was measured. […] The genomic DNA removal reaction system was as follows: According to the gene primers to be detected, the above-mentioned Mix without the cDNA template was prepared, mixed thoroughly, and kept on ice until use. […] The detection program was as follows: After detection, the relative gene expression levels were calculated using the 2^−┐┐T method.
# PD-L1 = assay: qPCR, WB and immunofluorescence of PD-L1 expression in LLC xenograft tumors; assay type: in vivo, mouse (C57BL/6J); details: immunofluorescence, FIG. 4
# colon cancer CT26 cells = assay: Orthotopic CT26 colon cancer model in mice; assay type: in vivo, mouse (BALB/C); details: BALB/C mice, CT26 tumor pieces implanted orthotopically at cecal end; treatment from second day; effects similar to anti-PD1; FIG. 12 A-B
# Text: To verify the therapeutic effect of selenomethionine (SeMet) on colon cancer, BALB/C mice were subcutaneously inoculated with colon cancer CT26 cells. After subcutaneous xenograft tumors grew to a certain size, the tumors were cut into 1 mm*1 mm*1 mm pieces that were then orthotopically implanted at the cecal end of the mice. SeMet intervention was initiated on the second day after orthotopic tumor formation.
# selenoproteins = assay: qPCR / Western blot of selenoprotein expression in LLC xenograft tumors; assay type: in vivo, mouse (C57BL/6J)
# [4] = test system: Treg cells, IL-17a-secreting TH17 cells; assay: Flow cytometry of Treg and TH17 cells in CT26 colon tumors; assay type: in vivo, mouse (BALB/C)
# Description: (§1) Preparation of single-cell suspension from mouse tumor cells: 200 mg of mouse tumor tissue was obtained, cut into pieces and added to 2.43 ml of tumor digestion solution, followed by digestion in a 37° C. shaking water bath for 30 minutes. Flow cytometry staining included surface antigen staining and intracellular factor (cytokines and transcription factors) staining. For the cytokine detection, broad-spectrum activation inhibitors (PMA, ionomycin, or BFA, added at a ratio of 1:1000) were first prepared with the RPMI-1640 medium. 100 μl of each reagent was added to resuspend the cells, and the cells were then transferred to a 96-well plate and treated in a 37° C. cell incubator for 4-6 h. Subsequently, 200 μl of FACS buffer was added, and the cells were pipetted to mix evenly before transferred to a 1.5 ml eppendorf tube. The tube was centrifuged at 350 g for 5 minutes, and the supernatant was carefully aspirated. Cells were resuspended in 100 μl of PBS. For the surface antigen staining, the above steps were omitted. The cell suspension was placed on ice, and live/dead dye (at a ratio of 1:1000) was added. Staining was performed on ice in darkness for 30 minutes. Cells were washed with 1 ml of PBS, centrifuged at 350 g for 5 minutes, and the supernatant was carefully removed. […]
# B16 melanoma cells = assay: Subcutaneous B16 melanoma xenograft tumor model in mice; assay type: in vivo, mouse (C57BL/6J); details: C57BL/6J mice, B16 2*10^5 cells s.c.; treated two weeks from day 14; FIG. 10
# Description: To verify the therapeutic effect of selenomethionine (SeMet) on melanoma, C57BL/6J mice were subcutaneously injected with B16 melanoma cells (2*10^5 cells per mouse) to establish xenograft tumors. After 14 days of tumor formation, the mice were treated with SeMet for two weeks (FIG. 10 panel A).
# [5] = test system: Treg cells, IL-17a-secreting TH17 cells; assay: Flow cytometry of Treg and TH17 cells in B16 xenograft tumors; assay type: in vivo, mouse (C57BL/6J)
# Description: as §1
# [6] = NSCLC subcutaneous xenograft tumor model, vs control group, summary statement
# [7] = NSCLC subcutaneous xenograft tumor model, summary statement
structure (smiles),measurement,setting,value
"C[Se]CC[C@H](NC(C)=O)C(=O)O [N-Ac-SeMet, N-acetyl-selenomethionine]",average tumor weight,"[1]; LLC s.c. tumors, end of treatment, vs control, p<0.05, FIG. 8C",significantly lower than those in the control group
same,tumor weight-to-body weight ratio,"[1]; LLC s.c. tumors, end of treatment, vs control, p<0.05, FIG. 8D",significantly lower than those in the control group
same,tumor volume,"[1]; LLC s.c. tumors, treated two weeks from day 14, Day 15, vs control, p<0.05, FIG. 8 A-B",significantly smaller than that in the control group
same,proportion of Treg (CD25+Foxp3+) cells in tumors,"[2]; LLC tumors, flow cytometry, FIG. 9 A-B",significantly reduced
same,proportion of Th17 (IL-17a+) cells in tumors,"[2]; LLC tumors, flow cytometry, FIG. 9 C-D",significantly increased
"C[Se]CC[C@H](N)C(=O)O [SeMet, L-selenomethionine]",growth of subcutaneous LLC tumors (tumor growth curves),"[1]; C57BL/6J mice, LLC 2*10^5 cells s.c., after 14 days SeMet 2 mg/kg i.p. 5 times per week for two weeks, FIG. 1",effectively inhibit the growth of subcutaneous LLC tumors
same,tumor growth,"[1]; LLC s.c. tumors, i.p. two weeks from day 14, SeMet 2 mg/kg 5 times per week, PD-1 antibody 200 μg per mouse 2 times per week, alone or combined, vs control, FIG. 5B",significantly reduced
same,tumor mass,[1]; [6],significantly reduced
same,tumor volume,[1]; [6],significantly reduced
same,tumor growth,[1]; [7],significantly inhibit tumor growth
same,tumor volume and mass compared with the PD-1 group,[1]; [7],no significant difference
same,ratio of tumor to body weight,"[1]; same study as FIG. 5B, FIG. 5C",validated this result
same,visual inspection of excised subcutaneous mouse tumors,"[1]; same study, FIG. 5D",significantly reduced
same,selenium content in subcutaneous xenograft tumors,[3],significantly increased
same,expression levels of CD4 and Foxp3 (mRNA),CD4 and Foxp3,reduced
same,expression of PD-L1,PD-L1,increased
same,colon cancer growth,colon cancer CT26 cells,effectively inhibited
same,expression of SOD1 and GPX1 at the protein level,"selenoproteins; LLC xenograft tumors, vs control group, WB, FIG. 3 M-N",significant increase
same,"expression of selenoproteins SOD1, SOD2, GPX1, GPX2, GPX4, Sephs2, Sepx1, SelS, SelP, Txnrd1, Txnrd2, Txnrd3 at the mRNA level","selenoproteins; LLC xenograft tumors, vs control group, qPCR, FIG. 3 A-L",significant increase
same,"expression of selenoproteins GPX1, GPX2, SOD1, SOD2, Sephs2, Sepx1, SelS, Txnrd1, Txnrd2, SelF, Selk, SelW, MT2 at the mRNA level","selenoproteins; LLC xenograft tumors, vs control group, qPCR, FIG. 6",increased
same,"levels of major selenoproteins, including GPX1, GPX4","selenoproteins; NSCLC tissues after treatment, summary statement",significantly increased
same,proportion of Treg cells,"[4]; FIG. 12 C, E",significantly reduced
same,proportion of IL-17a-secreting TH17 cells,"[4]; FIG. 12 D, F",increased
same,growth of subcutaneous B16 tumors,B16 melanoma cells,"effectively inhibited the growth of subcutaneous B16 tumors, with effects similar to anti-PD1 treatment"
same,proportion of Treg cells,"[5]; FIG. 11 A, C",significantly reduced
same,proportion of IL-17a-secreting TH17 cells,"[5]; FIG. 11 B, D",significantly increased
same,number of CD45+ immune cells,"[2]; LLC tumors digested into single cells, flow cytometry, FIG. 7 B-C",significantly increased
same,proportion of CD25+Foxp3+ Treg cells,"[2]; LLC tumors, flow cytometry, FIG. 7 D-E",significantly reduced
same,proportion of IL-17a-secreting TH17 cells,"[2]; LLC tumors, flow cytometry, FIG. 7 F-G",significantly increased
same,number of Treg cells infiltrating the tumor,"[2]; NSCLC tissues, flow sorting, summary statement",significantly reduced
